Results on six compounds are retold here after patent publication US20070104644A1, “Inhibitor imaging agents” (priority 2003, published 2007).

The subject of data set [1] is Lewis lung carcinoma (LLC) tumour. Description: Biodistribution in LLC tumour model in vivo. Set-up: species or system C57BL/6 mice. How it is done: 1×10^6 Lewis lung carcinoma (LLC) cells are injected subcutaneously into right inner thigh of C57BL/6 mice. Tumours were allowed to grow for 15 days prior to biodistribution being carried out.
Biodistribution studies were performed in the LLC tumour model.
Biodistribution was performed in the LLC tumour model of Example 23 with Compounds 46B and 48B.

Data set [2] relates to ApoE −/− mice, carotid artery. Description: Biodistribution in ApoE ligation model of atherosclerosis (ligated and sham). The format is in vivo. From the text:
ApoE −/− mice are transgenic knock-out mice, which lack the ApoE gene, and are therefore unable to regulate their plasma cholesterol levels. As a consequence ApoE mice develop atherosclerotic lesions, a process which is accelerated with feeding of high fat diet. Further acceleration of lesion development can be achieved by ligating the carotid artery, resulting in advanced lesion formation within 4 weeks of surgery and high fat diet feeding.
Two controls have been used for these experiments: (1) ApoE sham animals in which the mice undergo the same surgical intervention but the sture is only passed beneath the carotid and then removed and, (2) C57BL/6 ligtaed animals which undergo the same surgical ligation and high fat feeding as the ApoE ligated mice. Literature reports have stated that these animals do have some level of tissue remodelling, but with lower active MMP levels [Ivan et al, Circulation, 105, 2686-2691 (2002)].

The mark [3] stands for this setting: ApoE Ligated, 5 min post injection.
Where [4] appears, read: ApoE Ligated, 60 min post injection.
Setting [5] is: ApoE Sham, 60 min post injection.

As for `NC(=O)[C@H](Cc1ccc(O)c([123I])c1)NC(=O)CCOCCOCCOCCOCCOCCOCCOCCOCCOCCOCCOCCNC(=O)CCOCCOCCOCCOCCOCCOCCOCCOCCOCCOCCOCCNC(=O)CCN(C1(C(=O)NO)CCCC1)S(=O)(=O)c1ccc(Oc2ccc(F)cc2)cc1` [Compound 32A], in data set [1], the “Blood clearance / retention” value is listed as “high initial blood retention, which cleared with time”; the “GI excretion” value is “low GI excretion”; the “Tumour uptake and retention” value is “Good tumour uptake and retention were seen up to 1 hour post injection”; the “Urinary excretion” value is “High urinary excretion”. Further, in data set [1] (5 min post injection), the “% ID Urinary (urinary excretion), mean” value was found to be 9.82 % ID; the “% ID/g Tumour, mean” value is recorded as 2.58 % ID/g; the “Tumour/Blood, mean” value worked out at 0.16; the “Tumour/Heart, mean” value is 0.48. In addition, in data set [1] (5 min post injection), the “Tumour/Lung, mean” value is recorded as 0.30 and the “Tumour/Muscle, mean” value stood at 1.66. Moreover, in data set [1] (30 min post injection), the “% ID Urinary (urinary excretion), mean” value came out at 35.20 % ID; the “% ID/g Tumour, mean” value came to 2.67 % ID/g; the “Tumour/Blood, mean” value is recorded as 0.26; the “Tumour/Heart, mean” value turned out to be 0.75. Further, in data set [1] (30 min post injection), the “Tumour/Lung, mean” value is listed as 0.43 and the “Tumour/Muscle, mean” value was 2.80. Besides, in data set [1] (60 min post injection), the “% ID Urinary (urinary excretion), mean” value is on record as 54.06 % ID; the “% ID/g Tumour, mean” value turned out to be 2.03 % ID/g; the “Tumour/Blood, mean” value is on record as 0.43; the “Tumour/Heart, mean” value is 1.31. Also, in data set [1] (60 min post injection), the “Tumour/Lung, mean” value came out at 0.69 and the “Tumour/Muscle, mean” value turned out to be 4.88. In data set [1] (120 min post injection), the “% ID Urinary (urinary excretion), mean” value was determined as 64.10 % ID; the “% ID/g Tumour, mean” value is 1.34 % ID/g; the “Tumour/Blood, mean” value is given as 0.53; the “Tumour/Heart, mean” value stood at 1.54. Moreover, in data set [1] (120 min post injection), the “Tumour/Lung, mean” value stood at 0.55 and the “Tumour/Muscle, mean” value was 3.92. In addition, in data set [2] (setting [3]), the “% ID/G Carotid, mean” value is 10.32 % ID/G; the “Carotid/Blood, mean” value is given as 0.46; the “Carotid/Heart, mean” value was found to be 1.39; the “Carotid/Lung, mean” value is listed as 1.01. Besides, in data set [2] (setting [4]), the “% ID/G Carotid, mean” value worked out at 10.85 % ID/G; the “Carotid/Blood, mean” value is given as 1.21; the “Carotid/Heart, mean” value is given as 3.94; the “Carotid/Lung, mean” value came to 1.45. In data set [2] (setting [5]), the “% ID/G Carotid, mean” value was found to be 2.91 % ID/G; the “Carotid/Blood, mean” value was 0.69; the “Carotid/Heart, mean” value is 1.28; the “Carotid/Lung, mean” value was determined as 0.70.

For `NC(=O)[C@H](Cc1ccc(O)c([123I])c1)NC(=O)COCC(=O)NCCOCCOCCOCCNC(=O)CCN(C1(C(=O)NO)CCCC1)S(=O)(=O)c1ccc(Oc2ccc(F)cc2)cc1` [Compound 20A], in data set [1], the “Decrease in HBS (hepatobiliary) excretion compared to Compound 24A” value worked out at 10%, the “Increase in urinary excretion compared to Compound 24A” value stood at 10%, the “Tumour retention compared to Compound 24A” value is recorded as “slightly increased” and the “Uptake into the tumour compared to Compound 24A” value is “slightly lower”.

Consider `NC(=O)[C@H](Cc1ccc(O)c([123I])c1)NC(=O)CCOCCOCCOCCOCCOCCOCCOCCOCCOCCOCCOCCNC(=O)CCN(C1(C(=O)NO)CCCC1)S(=O)(=O)c1ccc(Oc2ccc(F)cc2)cc1` [Compound 44A], for which, in data set [1] (5 min post injection), the “% ID Urinary (urinary excretion), mean” value turned out to be 3.94 % ID; the “% ID/g Tumour, mean” value is on record as 1.14 % ID/g; the “Tumour/Blood, mean” value stood at 0.41; the “Tumour/Heart, mean” value came to 0.86. In data set [1] (5 min post injection), the “Tumour/Lung, mean” value was 0.49 and the “Tumour/Muscle, mean” value amounted to 1.91. Besides, in data set [1] (30 min post injection), the “% ID Urinary (urinary excretion), mean” value is recorded as 5.85 % ID; the “% ID/g Tumour, mean” value amounted to 0.5 % ID/g; the “Tumour/Blood, mean” value amounted to 0.38; the “Tumour/Heart, mean” value turned out to be 0.870. In data set [1] (30 min post injection), the “Tumour/Lung, mean” value is recorded as 0.54 and the “Tumour/Muscle, mean” value was 1.57. Also, in data set [1] (60 min post injection), the “% ID Urinary (urinary excretion), mean” value was 6.36 % ID; the “% ID/g Tumour, mean” value is recorded as 0.66 % ID/g; the “Tumour/Blood, mean” value turned out to be 0.42; the “Tumour/Heart, mean” value was 0.940. Further, in data set [1] (60 min post injection), the “Tumour/Lung, mean” value is recorded as 0.69 and the “Tumour/Muscle, mean” value was 2.3. In addition, in data set [1] (120 min post injection), the “% ID Urinary (urinary excretion), mean” value stood at 9.42 % ID; the “% ID/g Tumour, mean” value stood at 0.53 % ID/g; the “Tumour/Blood, mean” value was 0.43; the “Tumour/Heart, mean” value was 1.060. In data set [1] (120 min post injection), the “Tumour/Lung, mean” value is 0.72 and the “Tumour/Muscle, mean” value is recorded as 2.8.

As to `NCCCC[C@H](NC(=O)CCN(C1(C(=O)NO)CCCC1)S(=O)(=O)c1ccc(Oc2ccc(F)cc2)cc1)C(=O)N[C@@H](CCCCN)C(=O)N[C@@H](CCCCN)C(=O)N[C@@H](CCCCN)C(=O)N[C@@H](CCCCN)C(=O)NCCOCCOCCOCCNC(=O)COCC(=O)N[C@@H](Cc1ccc(O)c([123I])c1)C(N)=O` [Compound 42A], in data set [1] (5 min post injection), the “% ID Urinary (urinary excretion), mean” value was found to be 6.89 % ID; the “% ID/g Tumour, mean” value is 2.26 % ID/g; the “Tumour/Blood, mean” value is reported as 0.26; the “Tumour/Heart, mean” value is listed as 0.47. Further, in data set [1] (5 min post injection), the “Tumour/Lung, mean” value is reported as 0.26 and the “Tumour/Muscle, mean” value was found to be 1.46. Further, in data set [1] (30 min post injection), the “% ID Urinary (urinary excretion), mean” value is listed as 16.98 % ID; the “% ID/g Tumour, mean” value turned out to be 2.67 % ID/g; the “Tumour/Blood, mean” value came to 0.54; the “Tumour/Heart, mean” value is 1.24. In data set [1] (30 min post injection), the “Tumour/Lung, mean” value was found to be 0.57 and the “Tumour/Muscle, mean” value is listed as 3.22. Moreover, in data set [1] (60 min post injection), the “% ID Urinary (urinary excretion), mean” value was determined as 31.69 % ID; the “% ID/g Tumour, mean” value was 2.35 % ID/g; the “Tumour/Blood, mean” value came out at 0.66; the “Tumour/Heart, mean” value was found to be 1.49. Further, in data set [1] (60 min post injection), the “Tumour/Lung, mean” value stood at 0.74 and the “Tumour/Muscle, mean” value is given as 3.52. For the same compound, in data set [1] (120 min post injection), the “% ID Urinary (urinary excretion), mean” value came out at 48.07 % ID; the “% ID/g Tumour, mean” value was 1.29 % ID/g; the “Tumour/Blood, mean” value worked out at 0.56; the “Tumour/Heart, mean” value was 1.49. In data set [1] (120 min post injection), the “Tumour/Lung, mean” value is recorded as 0.60 and the “Tumour/Muscle, mean” value is recorded as 2.51.

On to `NC(=O)[C@H](Cc1ccc(O)c([123I])c1)NC(=O)COCC(=O)NCCOCCOCCOCCNC(=O)[C@H](CCC(=O)O)NC(=O)[C@H](CCC(=O)O)NC(=O)[C@H](CCC(=O)O)NC(=O)[C@H](CCC(=O)O)NC(=O)[C@H](CCC(=O)O)NC(=O)CCN(C1(C(=O)NO)CCCC1)S(=O)(=O)c1ccc(Oc2ccc(F)cc2)cc1` [Compound 38A], for which, in data set [1] (5 min post injection), the “% ID Urinary (urinary excretion), mean” value worked out at 6.37 % ID; the “% ID/g Tumour, mean” value is recorded as 2.08 % ID/g; the “Tumour/Blood, mean” value worked out at 0.13; the “Tumour/Heart, mean” value amounted to 0.29. Besides, in data set [1] (5 min post injection), the “Tumour/Lung, mean” value was determined as 0.33 and the “Tumour/Muscle, mean” value amounted to 1.22. In data set [1] (30 min post injection), the “% ID Urinary (urinary excretion), mean” value stood at 40.17 % ID; the “% ID/g Tumour, mean” value was determined as 2.14 % ID/g; the “Tumour/Blood, mean” value is given as 0.30; the “Tumour/Heart, mean” value worked out at 0.90. Moreover, in data set [1] (30 min post injection), the “Tumour/Lung, mean” value is 0.73 and the “Tumour/Muscle, mean” value turned out to be 2.19. For the same compound, in data set [1] (60 min post injection), the “% ID Urinary (urinary excretion), mean” value was found to be 68.53 % ID; the “% ID/g Tumour, mean” value is 1.06 % ID/g; the “Tumour/Blood, mean” value came to 0.45; the “Tumour/Heart, mean” value was 1.25. In addition, in data set [1] (60 min post injection), the “Tumour/Lung, mean” value came out at 0.83 and the “Tumour/Muscle, mean” value amounted to 2.27. Moreover, in data set [1] (120 min post injection), the “% ID Urinary (urinary excretion), mean” value stood at 78.75 % ID; the “% ID/g Tumour, mean” value was found to be 0.42 % ID/g; the “Tumour/Blood, mean” value worked out at 0.52; the “Tumour/Heart, mean” value amounted to 1.14. In data set [1] (120 min post injection), the “Tumour/Lung, mean” value was 0.64 and the “Tumour/Muscle, mean” value was determined as 1.82.

In the case of `NC(=O)[C@H](Cc1ccc(O)c([123I])c1)NC(=O)[C@H](CCC(=O)O)NC(=O)[C@H](CCC(=O)O)NC(=O)[C@H](CCC(=O)O)NC(=O)[C@H](CCC(=O)O)NC(=O)[C@H](CCC(=O)O)NC(=O)CCN(C1(C(=O)NO)CCCC1)S(=O)(=O)c1ccc(Oc2ccc(F)cc2)cc1` [Compound 21A], in data set [1] (5 min post injection), the “% ID Urinary (urinary excretion), mean” value stood at 5.62 % ID; the “% ID/g Tumour, mean” value turned out to be 1.64 % ID/g; the “Tumour/Blood, mean” value is on record as 0.13; the “Tumour/Heart, mean” value is 0.30. Also, in data set [1] (5 min post injection), the “Tumour/Lung, mean” value is recorded as 0.28 and the “Tumour/Muscle, mean” value amounted to 0.92. Further, in data set [1] (30 min post injection), the “% ID Urinary (urinary excretion), mean” value came out at 26.73 % ID; the “% ID/g Tumour, mean” value came to 2.20 % ID/g; the “Tumour/Blood, mean” value is on record as 0.33; the “Tumour/Heart, mean” value is reported as 0.83. Also, in data set [1] (30 min post injection), the “Tumour/Lung, mean” value is on record as 0.65 and the “Tumour/Muscle, mean” value is recorded as 1.72. Further, in data set [1] (60 min post injection), the “% ID Urinary (urinary excretion), mean” value is recorded as 39.99 % ID; the “% ID/g Tumour, mean” value was determined as 1.97 % ID/g; the “Tumour/Blood, mean” value was found to be 0.40; the “Tumour/Heart, mean” value came out at 1.14. In data set [1] (60 min post injection), the “Tumour/Lung, mean” value worked out at 0.66 and the “Tumour/Muscle, mean” value is given as 2.30. Besides, in data set [1] (120 min post injection), the “% ID Urinary (urinary excretion), mean” value worked out at 52.08 % ID; the “% ID/g Tumour, mean” value is on record as 1.60 % ID/g; the “Tumour/Blood, mean” value was found to be 0.37; the “Tumour/Heart, mean” value turned out to be 0.91. In data set [1] (120 min post injection), the “Tumour/Lung, mean” value turned out to be 0.61 and the “Tumour/Muscle, mean” value was 2.44.
